Assay [1] addresses T1, Trace amine-associated receptor 1 (Homo sapiens, UniProt Q96RJ0).
T1 sequence (Q96RJ0 whole entry): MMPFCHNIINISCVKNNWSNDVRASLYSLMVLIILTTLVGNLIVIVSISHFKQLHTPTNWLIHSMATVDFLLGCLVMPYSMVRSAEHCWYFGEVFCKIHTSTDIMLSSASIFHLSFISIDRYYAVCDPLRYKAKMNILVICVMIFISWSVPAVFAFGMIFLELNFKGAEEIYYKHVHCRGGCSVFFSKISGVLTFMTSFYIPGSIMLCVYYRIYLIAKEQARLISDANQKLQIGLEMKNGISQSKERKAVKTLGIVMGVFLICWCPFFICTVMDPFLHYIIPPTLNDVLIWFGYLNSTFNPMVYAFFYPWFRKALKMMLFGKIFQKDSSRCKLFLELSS
Put plainly: Counterscreen for agonists of the human trace amine associated receptor 1 (hTAAR1): Fluorescence-based cell-based high throughput dose response assay to identify hTAAR1 agonist that also desensitize TAAR1 receptor response. It is filed as functional. In general terms: The purpose of a counterscreen is to sort out artefacts and off-target activity.

A short description of assay [2]: cells. It is filed as functional, cell-based.
Assay [3] deals with T1, Trace amine-associated receptor 1. Put plainly: Fluorescence-based cell-based high throughput dose response assay to identify agonists of the human trace amine associated receptor 1 (TAAR1). It is filed as functional.
Assay [4] is described as follows: cells. It is filed as functional, cell-based. This is another data set of the same source.
Another assay concerns Vero. Put plainly: Vero cell cytotoxicity, cytotoxicity control for flavivirus capping enzyme inhibitors (AID 588742). It is filed as functional. Particulars: Chlorocebus sabaeus.
The target in assay [5] is T2, Polyadenylate-binding protein 1 (Homo sapiens, UniProt P11940). Put plainly: PABP1 MLLE–PAM2 interaction inhibitors, dose response, miRNA deadenylation inhibitor project, biochemical, fluorescence polarization, Cy5-PAM2 peptide, secondary (AID 602260). It is filed as functional. The settings on record: read-out: IC50_Mean.
The target in assay [6] is T2, Polyadenylate-binding protein 1. Description: PABP1 MLLE–PAM2 binding inhibitor potency, dose response, biochemical, fluorescence polarization, FITC-PAM2 peptide (AID 602259). It is filed as functional. The settings on record: read-out: IC50_Mean.
In assay [7] the target is T3, Methionyl-tRNA synthetase, putative (Trypanosoma brucei brucei, UniProt Q38C91).
T3 sequence (Q38C91 whole entry): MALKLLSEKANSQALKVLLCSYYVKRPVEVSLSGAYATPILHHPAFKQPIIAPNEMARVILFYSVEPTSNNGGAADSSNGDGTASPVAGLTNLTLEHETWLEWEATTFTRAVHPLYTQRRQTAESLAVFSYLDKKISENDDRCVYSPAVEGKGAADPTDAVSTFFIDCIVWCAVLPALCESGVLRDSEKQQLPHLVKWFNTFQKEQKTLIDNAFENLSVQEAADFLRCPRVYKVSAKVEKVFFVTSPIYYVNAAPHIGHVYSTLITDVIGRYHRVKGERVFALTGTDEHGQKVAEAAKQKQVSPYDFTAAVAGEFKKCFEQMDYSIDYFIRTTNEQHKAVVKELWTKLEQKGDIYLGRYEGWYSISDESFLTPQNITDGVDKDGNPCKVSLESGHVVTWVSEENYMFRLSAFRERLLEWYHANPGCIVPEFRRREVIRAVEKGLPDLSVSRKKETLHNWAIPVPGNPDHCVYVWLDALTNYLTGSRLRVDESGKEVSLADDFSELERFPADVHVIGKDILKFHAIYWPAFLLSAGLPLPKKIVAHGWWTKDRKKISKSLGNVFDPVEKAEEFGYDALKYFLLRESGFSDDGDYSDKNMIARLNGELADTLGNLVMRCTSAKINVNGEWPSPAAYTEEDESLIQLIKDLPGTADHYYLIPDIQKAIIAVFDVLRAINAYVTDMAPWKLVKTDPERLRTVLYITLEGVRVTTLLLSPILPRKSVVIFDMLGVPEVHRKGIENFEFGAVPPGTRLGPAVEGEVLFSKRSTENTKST
It is filed as functional, Trypanosoma brucei brucei strain 927/4 GUTat10.1.

For assay [8], the target named is T3, Methionyl-tRNA synthetase, putative. It is filed as functional, Trypanosoma brucei brucei strain 927/4 GUTat10.1. This is another data set of the same source.
The nature of assay [9]: inhibitors of intracellular T. cruzi replication, confirmation, NIH3T3 host cells, beta-gal luminescence (AID 2044).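 Note: intracellular parasites grown in NIH/3T3 mouse fibroblasts as host cells; luminescent beta-galactosidase reporter signal from transgenic T. cruzi replicating inside host cells; inhibitors lower the luminescence signal.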 It is filed as functional, cell-based.
A short description of assay [10]: cytotoxicity toward NIH3T3 fibroblasts, dose response, counter-screen, cell-based, ATP luminescence, mouse fibroblasts (AID 2010).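 Note: cells exposed to compound for about 90 hours before reading.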 It is filed as functional.
A short description of assay [11]: Counterscreen for inhibitors of Trypanosoma brucei methionyl tRNA synthetase (MetRS): Luminescence-based cell-based high throughput dose response assay to identify compounds that are cytotoxic to Jurkat human T lymphocyte cells. It is filed as functional.
For another assay, the target named is T4, Hexokinase-1 (Homo sapiens, UniProt P19367).
T4 sequence (P19367 whole entry): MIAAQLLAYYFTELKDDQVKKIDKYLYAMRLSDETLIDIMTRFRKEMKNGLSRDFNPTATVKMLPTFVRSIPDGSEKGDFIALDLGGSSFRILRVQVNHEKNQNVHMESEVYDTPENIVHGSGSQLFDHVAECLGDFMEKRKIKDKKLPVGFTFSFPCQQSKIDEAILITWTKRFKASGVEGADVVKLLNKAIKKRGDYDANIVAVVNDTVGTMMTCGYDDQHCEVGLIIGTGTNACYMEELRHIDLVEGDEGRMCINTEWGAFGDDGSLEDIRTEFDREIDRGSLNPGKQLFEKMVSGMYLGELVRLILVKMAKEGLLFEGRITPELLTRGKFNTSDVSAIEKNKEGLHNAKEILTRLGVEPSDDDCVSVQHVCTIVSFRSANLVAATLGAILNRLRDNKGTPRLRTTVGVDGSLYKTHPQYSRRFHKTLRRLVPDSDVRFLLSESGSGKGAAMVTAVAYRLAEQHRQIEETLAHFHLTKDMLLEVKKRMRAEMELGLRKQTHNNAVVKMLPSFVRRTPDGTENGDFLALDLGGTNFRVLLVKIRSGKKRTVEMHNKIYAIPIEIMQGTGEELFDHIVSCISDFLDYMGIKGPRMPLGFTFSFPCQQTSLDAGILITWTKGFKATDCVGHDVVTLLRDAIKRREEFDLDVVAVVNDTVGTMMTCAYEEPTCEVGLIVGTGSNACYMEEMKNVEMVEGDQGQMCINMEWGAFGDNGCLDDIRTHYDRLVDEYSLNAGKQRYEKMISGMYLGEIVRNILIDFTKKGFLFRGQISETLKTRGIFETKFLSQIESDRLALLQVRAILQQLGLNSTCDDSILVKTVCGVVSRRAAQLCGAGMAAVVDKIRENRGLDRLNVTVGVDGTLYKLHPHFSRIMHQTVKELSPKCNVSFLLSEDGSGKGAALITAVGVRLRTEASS
Put plainly: SAR analysis of small molecule inhibitors of hexokinase domain containing I (HKDC1) in the hexokinase 1 selectivity assay. [Related pubchem assays (depositor defined):AID493160, AID493190]. It is filed as functional.

A further assay has as its target T5, Hexokinase HKDC1 (Homo sapiens, UniProt Q2TB90).
T5 sequence (Q2TB90 whole entry): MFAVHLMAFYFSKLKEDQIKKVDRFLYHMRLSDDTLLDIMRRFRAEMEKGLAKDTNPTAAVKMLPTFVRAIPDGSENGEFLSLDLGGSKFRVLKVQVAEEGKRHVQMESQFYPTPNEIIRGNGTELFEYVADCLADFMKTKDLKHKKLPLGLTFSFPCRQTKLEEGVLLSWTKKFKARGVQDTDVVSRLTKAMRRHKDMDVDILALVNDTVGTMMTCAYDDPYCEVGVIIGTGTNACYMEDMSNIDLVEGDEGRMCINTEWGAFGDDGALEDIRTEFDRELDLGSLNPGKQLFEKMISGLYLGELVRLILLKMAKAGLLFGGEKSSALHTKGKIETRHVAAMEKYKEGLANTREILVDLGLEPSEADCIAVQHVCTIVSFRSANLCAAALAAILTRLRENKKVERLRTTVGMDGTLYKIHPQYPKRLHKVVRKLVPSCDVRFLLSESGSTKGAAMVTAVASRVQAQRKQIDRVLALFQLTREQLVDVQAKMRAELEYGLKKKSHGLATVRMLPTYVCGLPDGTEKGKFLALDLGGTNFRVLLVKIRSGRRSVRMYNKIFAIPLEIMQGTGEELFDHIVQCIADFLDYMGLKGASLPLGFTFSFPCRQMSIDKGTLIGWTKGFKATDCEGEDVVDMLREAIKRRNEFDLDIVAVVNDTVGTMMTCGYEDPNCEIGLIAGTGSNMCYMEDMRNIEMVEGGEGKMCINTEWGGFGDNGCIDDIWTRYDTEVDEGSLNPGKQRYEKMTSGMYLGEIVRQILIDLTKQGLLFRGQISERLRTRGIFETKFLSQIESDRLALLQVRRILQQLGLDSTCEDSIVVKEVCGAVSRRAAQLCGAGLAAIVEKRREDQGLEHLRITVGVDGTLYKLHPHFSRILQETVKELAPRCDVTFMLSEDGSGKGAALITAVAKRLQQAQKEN
Put plainly: SAR analysis of small molecule inhibitors of hexokinase domain containing I (HKDC1). [Related pubchem assays (depositor defined):AID493160, AID493190]. It is filed as functional.

The nature of assay [12]: non-specific cell cytotoxicity, dose response, cytotoxicity control for PAX8 inhibitor project, plate reader, dry powder samples (AID 743021). It is filed as functional, cell-based.
Another assay deals with Melanocortin receptor 4 (Homo sapiens, UniProt P32245). It is filed as functional, cell-based.
A further assay addresses Paired box protein Pax-8 (Homo sapiens, UniProt Q06710). Put plainly: inhibitors of PAX8-driven TPO luciferase reporter, dose response, RMG-I cells, cherry-pick (AID 687027).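 Note: luciferase reporter driven by Pax8 target thyroperoxidase promoter measured by SteadyGlo luminescence.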 It is filed as functional, cell-based. For orientation: Reporter assays use an easily measured gene product as a stand-in for the process of interest.
Assay [13] is described as follows: control 3'UTR Renilla luciferase suppression, dose response, counter-screen for Shn3 inhibitor project, cell-based, Clone20-Shn3RL, cherry-picked (AID 624133). It is filed as functional.
The nature of assay [14]: Shn3 3'UTR reporter inhibitors, dose response, cell-based, Clone20 osteoblasts, firefly luciferase, cherry-picked (AID 624132).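 Note: firefly luciferase luminescence from reporter carrying the Shn3 3'UTR in osteoblasts.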 It is filed as functional.
Assay [15] is described as follows: inhibitors of PGC1a acetylation in cells, dose response, cell-based, cherry-picked samples (AID 720514).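 Note: potency may reflect raised or lowered acetylation signal.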 It is filed as functional.
Assay [16] in a line: HepG2 cell cytotoxicity, dose response, cytotoxicity control for Shn3 inhibitor project, CellTiter-Glo, cherry-picked (AID 624134). It is filed as functional, cell-based. A general note: Cellular ATP, detected with luciferase, serves as a proxy for viable cell number.
In assay [17] the target is Adenosylmethionine-8-amino-7-oxononanoate aminotransferase (Mycobacterium tuberculosis, UniProt P9WQ81). Description: Mycobacterium tuberculosis BioA enzyme inhibitor Measured in Biochemical System Using Plate Reader - 2163-02_Inhibitor_Dose_CherryPick_Activity. It is filed as functional, Mycobacterium tuberculosis UT205.
Assay [18] addresses Fructose-bisphosphate aldolase (Mycobacterium tuberculosis, UniProt P9WQA3). Put plainly: Fluorescence-based biochemical high throughput dose response assay for inhibitors of the fructose-bisphosphate aldolase (FBA) of M. tuberculosis. It is filed as functional.
The target in assay [19] is Aryl hydrocarbon receptor (Homo sapiens, UniProt P35869). The settings on record: Potency.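 Note: confirmatory quantitative high-throughput screen measuring activation of the AhR signaling pathway.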

Active and inactive are the calls of the source. A value given as a limit tells only on which side of the number the result lay.

T2 sequence (P11940 whole entry): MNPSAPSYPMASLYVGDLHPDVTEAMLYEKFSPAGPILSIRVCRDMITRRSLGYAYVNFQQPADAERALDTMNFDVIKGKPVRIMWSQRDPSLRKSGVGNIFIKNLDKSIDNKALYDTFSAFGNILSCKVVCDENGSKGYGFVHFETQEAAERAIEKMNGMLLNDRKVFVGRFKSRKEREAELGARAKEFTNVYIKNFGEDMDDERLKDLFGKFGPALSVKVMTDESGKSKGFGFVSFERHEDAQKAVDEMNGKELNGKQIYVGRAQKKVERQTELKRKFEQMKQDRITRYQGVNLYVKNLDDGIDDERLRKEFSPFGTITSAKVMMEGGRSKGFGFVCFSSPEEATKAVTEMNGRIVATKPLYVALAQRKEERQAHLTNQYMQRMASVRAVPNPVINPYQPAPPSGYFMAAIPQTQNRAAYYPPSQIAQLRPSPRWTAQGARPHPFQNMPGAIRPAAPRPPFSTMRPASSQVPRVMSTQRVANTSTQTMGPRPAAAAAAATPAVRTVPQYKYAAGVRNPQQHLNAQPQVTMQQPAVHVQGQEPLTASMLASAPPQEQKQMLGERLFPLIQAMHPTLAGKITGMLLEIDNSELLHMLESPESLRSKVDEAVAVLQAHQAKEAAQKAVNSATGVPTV
Chain of Aryl hydrocarbon receptor (P35869 whole entry): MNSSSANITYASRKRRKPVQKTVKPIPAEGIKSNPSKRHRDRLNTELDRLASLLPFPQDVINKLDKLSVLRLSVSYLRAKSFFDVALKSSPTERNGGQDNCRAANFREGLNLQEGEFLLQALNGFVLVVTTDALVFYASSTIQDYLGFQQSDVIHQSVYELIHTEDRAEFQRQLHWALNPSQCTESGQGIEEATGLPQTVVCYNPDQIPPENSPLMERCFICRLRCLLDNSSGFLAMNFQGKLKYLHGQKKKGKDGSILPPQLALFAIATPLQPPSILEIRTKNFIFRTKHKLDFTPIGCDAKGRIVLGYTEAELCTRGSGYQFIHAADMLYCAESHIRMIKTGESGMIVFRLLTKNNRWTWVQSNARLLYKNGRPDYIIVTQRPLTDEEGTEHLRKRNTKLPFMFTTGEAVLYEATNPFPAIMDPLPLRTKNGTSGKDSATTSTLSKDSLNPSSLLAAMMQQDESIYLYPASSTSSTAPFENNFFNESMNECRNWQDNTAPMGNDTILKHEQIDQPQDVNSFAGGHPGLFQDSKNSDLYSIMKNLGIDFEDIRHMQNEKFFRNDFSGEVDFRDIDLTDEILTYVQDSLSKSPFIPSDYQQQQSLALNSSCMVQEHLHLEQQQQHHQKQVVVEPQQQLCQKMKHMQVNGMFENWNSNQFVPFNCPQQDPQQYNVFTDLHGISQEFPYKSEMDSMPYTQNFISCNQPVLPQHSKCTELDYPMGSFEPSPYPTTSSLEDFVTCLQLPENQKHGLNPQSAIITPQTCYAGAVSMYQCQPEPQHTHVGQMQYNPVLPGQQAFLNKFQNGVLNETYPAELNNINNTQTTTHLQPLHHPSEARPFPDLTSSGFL
Chain of Adenosylmethionine-8-amino-7-oxononanoate aminotransferase (P9WQ81 whole entry): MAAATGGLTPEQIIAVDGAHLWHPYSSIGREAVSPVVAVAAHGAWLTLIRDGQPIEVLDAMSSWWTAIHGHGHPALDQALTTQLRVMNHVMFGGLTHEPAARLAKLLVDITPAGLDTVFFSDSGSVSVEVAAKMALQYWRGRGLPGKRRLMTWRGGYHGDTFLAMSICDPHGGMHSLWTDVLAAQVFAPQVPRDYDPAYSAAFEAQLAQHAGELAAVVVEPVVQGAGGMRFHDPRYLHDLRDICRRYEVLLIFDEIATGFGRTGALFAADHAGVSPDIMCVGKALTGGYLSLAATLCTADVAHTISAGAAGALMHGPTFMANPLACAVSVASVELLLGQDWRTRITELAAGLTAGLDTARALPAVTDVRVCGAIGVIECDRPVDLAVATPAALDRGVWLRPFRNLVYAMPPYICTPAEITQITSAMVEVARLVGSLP
Chain of Melanocortin receptor 4 (P32245 whole entry): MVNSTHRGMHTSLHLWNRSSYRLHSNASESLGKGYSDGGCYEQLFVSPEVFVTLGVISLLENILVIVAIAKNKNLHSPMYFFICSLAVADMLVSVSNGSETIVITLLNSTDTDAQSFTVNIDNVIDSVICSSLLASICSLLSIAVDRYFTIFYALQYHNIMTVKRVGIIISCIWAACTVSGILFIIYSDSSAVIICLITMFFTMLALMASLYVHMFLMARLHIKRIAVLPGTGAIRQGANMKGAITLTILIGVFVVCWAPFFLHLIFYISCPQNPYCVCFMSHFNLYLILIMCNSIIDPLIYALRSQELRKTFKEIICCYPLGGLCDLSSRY
Chain of Paired box protein Pax-8 (Q06710 whole entry): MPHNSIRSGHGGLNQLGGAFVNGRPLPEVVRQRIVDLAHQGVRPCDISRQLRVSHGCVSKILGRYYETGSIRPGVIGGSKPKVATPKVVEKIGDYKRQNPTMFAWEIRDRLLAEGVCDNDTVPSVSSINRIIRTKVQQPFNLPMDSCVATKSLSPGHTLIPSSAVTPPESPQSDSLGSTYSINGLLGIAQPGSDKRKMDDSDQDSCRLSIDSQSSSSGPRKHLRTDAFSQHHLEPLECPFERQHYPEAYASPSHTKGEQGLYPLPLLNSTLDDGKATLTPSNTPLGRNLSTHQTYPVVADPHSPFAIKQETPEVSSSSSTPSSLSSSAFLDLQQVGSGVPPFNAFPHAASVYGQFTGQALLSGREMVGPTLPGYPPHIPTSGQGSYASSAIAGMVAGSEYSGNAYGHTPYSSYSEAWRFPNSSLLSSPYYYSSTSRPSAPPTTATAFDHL
Chain of Fructose-bisphosphate aldolase (P9WQA3 whole entry): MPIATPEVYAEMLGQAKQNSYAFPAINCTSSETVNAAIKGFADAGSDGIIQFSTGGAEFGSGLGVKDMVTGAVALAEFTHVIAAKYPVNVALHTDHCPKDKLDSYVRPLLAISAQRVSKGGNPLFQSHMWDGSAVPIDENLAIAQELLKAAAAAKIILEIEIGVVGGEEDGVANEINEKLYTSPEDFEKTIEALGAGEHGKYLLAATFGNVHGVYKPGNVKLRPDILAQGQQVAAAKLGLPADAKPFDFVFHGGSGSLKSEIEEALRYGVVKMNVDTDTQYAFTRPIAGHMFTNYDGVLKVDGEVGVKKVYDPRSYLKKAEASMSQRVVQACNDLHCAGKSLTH

`CC1=C(NCCc2ccccc2)CCC1=O`: the IC50 in assay [1] is 5.79 µM (active); in “cells [2]”, > 29.9 µM (inactive). Moreover, the EC50 (commonly the concentration that produces a half-maximal response) in [3] was 1.16 µM (active); in “cells [4]”, > 29.9 µM (inactive).
Consider `COC/C=C/C1=CC2=CC(=O)C(C)(OC(=O)c3cnc4ccccc4n3)C(=O)C2=CN1Cc1ccc(OC)cc1` (stereo not given), for which, in the assay on Vero, the CC50 (usually the concentration at which the toxic effect on the cells reaches its halfway point) is 39.2 µM (active).
As for `O=C(Nc1cccs1)Nc1c(F)c(F)c(F)c(F)c1F`, the IC50 in [5] and in [6] was > 66 µM (inactive) throughout.
`O=C(CCNS(=O)(=O)c1ccc(Br)s1)Nc1ccc(Cl)cc1`: the IC50 in assay [7] is 1.85 µM (active); in assay [8], 3.53 µM (active); in assay [11], 83.3 µM (inactive). Also, the values for the EC50 in assay [9] and in assay [10] were 3.44 µM (active) and > 60 µM (inconclusive), respectively.
Regarding `S=C(NCCSCc1ccc(Cl)cc1)Nc1ccccc1`, the IC50 was 11.7 µM (inactive) in assay [7], 8.52 µM (active) in assay [8] and 83.3 µM (inactive) in [11].
Consider `O=C(Nc1cccc(C(=O)Nc2cccc(C(F)(F)F)c2)c1)c1ccncc1`, for which the IC50 at Hexokinase-1 and at Hexokinase HKDC1 was > 80 µM (inactive) throughout.
As for `COc1ccccc1/C=C/c1nc2ccccc2c(=O)n1Cc1ccccc1`, the IC50 at Hexokinase-1 and on Hexokinase HKDC1 was > 80 µM (inactive) throughout.
In the case of `O=C(Nc1nnc(SCc2ccc(Cl)cc2)s1)c1ccc2ncsc2c1`, the IC50 on Hexokinase-1 and at Hexokinase HKDC1 was > 80 µM (inactive) throughout.
Turning to `CCN1CCN(Cc2ccc(NC(=O)c3cc(NC(=O)c4cncc(-c5ccc(C#N)cc5)c4)cc(OC)c3)cc2C(F)(F)F)CC1`, the AC50 (as a rule, the midpoint of the concentration-response curve, whichever way the signal moves) is 48.2 µM (active) in [12]; 7.76 µM (active) on Paired box protein Pax-8; 7.18 µM (active) in [13]; 3.36 µM (active) in [14]; 6.66 µM (active) in [15]; 8.15 µM (active) in [16]. Also, the EC50 on Melanocortin receptor 4 was > 89.2 µM (inactive).
With `O=C(Cc1ccccc1)N1CC[C@@H]2[C@H]1c1cc(Br)ccc1N[C@@H]2CO`, the AC50 in assay [17] is 2.74 µM (active).
Turning to `COc1ccc(OC)c2c1C(=O)CC2C` (stereo not given), in assay [18], the IC50 was 2.23 µM (active).
Take `CCNC(=O)[C@H]1[C@H](CO)[C@H]2Cn3c(ccc(-c4cccc(F)c4)c3=O)[C@H]2N1C(=O)Cc1cccnc1`: the AC50 in assay [17] is 17 µM (active).
With `Cc1ccc(NC(=O)CSC(N)=O)cc1Cl`, the IC50 in assay [5] and in [6] was > 66 µM (inactive) each time.
Turning to `O=C(Nc1ccccc1)Nc1cnns1` [THIDIAZURON], the AC50 in [19] was 50.1 µM (inconclusive).
In the case of `O=P(OCC(Br)CBr)(OCC(Br)CBr)OCC(Br)CBr` (stereo not given) [TRIS(2,3-DIBROMOPROPYL)PHOSPHATE], the AC50 in assay [19] was 56.2 µM (inconclusive).
